Experimental data as given in patent US8835466B2, “Synthesis and uses of pyroglutamic acid derivatives” (Prodimed, S.A., priority 2006, dated 2014).

System: Ehrlich tumour cells (murine mammary adenocarcinoma)
Experiment: Effect of isomers and BLAS on in vivo tumour growth, Ehrlich tumours (Example 9)
Set-up: species or system Balb/c mice
Conditions: for Tumour surface, overall values (Mean) / Tumour surface, overall values (Median) / Tumour volume, overall values (Mean) / Tumour volume, overall values (Median): 260 ng/mouse i.p. days 6, 7 and 14
Description: This assay was made in order to compare the effect of each stereoisomer on in vivo tumour growth in mice with the effect of the mixture of all of them challenged with Ehlrich tumours. The same products, equipment, reagents, doses, vehicle and route of administration as in example 8 were used.
Mice were inoculated with Ehrlich tumour cells. It was described as a murine mammary adenocarcinoma. Ehrlich tumour is a murine mammary carcinoma originally raised in an outbred mouse, and therefore it belongs to the so-called non-specific tumours (Subiza J L, Viñuela J E, Rodriguez R, Gil J, Figueredo M A, de la Concha. E G. Development of splenic natural suppressor (NS) cells in Ehrlich tumor bearing mice. Int J Cancer, 44:307 315; 1989). It may grow across histocompatibility barriers and therefore is not mouse strain specific (Carry P J, Prescott D M, Ogilvie G K. Resistance to Ehrlich ascites tumor in a strain of dystrophic mice. Cancer Res., 39:2139-2140; 1979).
Ehrlich cells were maintained in vitro by serial passages every 3-4 days. Cultures were performed with RPMI medium medium (RPMI, 10% foetal calf serum, 2 mM L-glutamine, non essential aminoacids, 1 mM sodium pyruvate, 20 mM HEPES, 80 μg/mL gentamycin; all of them were purchased from Sigma, St. Louis, Mo., USA) by seeding 5×10^6 cells onto 75 cm^2 culture flasks. Tumour cells collected from 48 hour cultures were used as source of cells for the studies described below.
Tumours were established by subcutaneous inoculation in the right hind flank. Mice (Balb/c) were inoculated with 0.2 mL containing 2×10^5 viable Ehrlich cells. The day of subcutaneous inoculation will be considered Day 0 of the test.
Mice were observed daily and the tumour size recorded twice a week. This was carried out by measuring two perpendicular diameters (L/W) with a calliper. These measures were used to obtain both tumour surface and volume: Tumour surface=L×W(mm^2) Tumour volume=L×W^2×½(mm^3)
Results were expressed as single values and/or as the mean±SD or median from each experimental group.
A case-control study was performed with treated and control mice in order to determine whether differences between BLAS or each diferent stereoisomer and administration of placebo were present. […] The U-test of Mann Withney was chosen for being one of the better known non-parametrical tests, anyway, results for this test are equivalent both to those of Wilcoxon's sum of ranges and Kruskal-Wallis two-groups test.

[1] = day 13 after tumour inoculation
[2] = day 16 after tumour inoculation
[3] = day 20 after tumour inoculation
[4] = day 23 after tumour inoculation
[5] = day 29 after tumour inoculation
[6] = day 31 after tumour inoculation
[7] = day 35 after tumour inoculation
[8] = day 38 after tumour inoculation

In the case of `Br.N[C@@]1(C[n+]2ccccc2)C[C@@H](C(=O)O)NC1=O.[Br-]` (single isomer, unassigned; isomer 1) [isomer 1, 3R,5S-1-(3-Amino-5-carboxy-2-oxopyrrolidin-3-ylmethyl)pyridinium bromide hidrobromide], the “Inhibition of the in vivo growth of Ehrlich tumour cells, in words” value (260 ng i.p. days 6, 7 and 14) is reported as “inhibit the in vivo growth”, the “Tumour surface, overall values (Mean)” value (day 0 after tumour inoculation) is reported as 0 mm^2 and the “Tumour surface, overall values (Median)” value (day 0 after tumour inoculation) is reported as 0 mm^2. For the same compound, the “Tumour volume, overall values (Mean)” value (day 0 after tumour inoculation) was 0 mm^3, the “Tumour volume, overall values (Median)” value (day 0 after tumour inoculation) was 0 mm^3 and the “Tumour surface, overall values (Mean)” value (day 8 after tumour inoculation) was 5.69 mm^2. The “Tumour surface, overall values (Median)” value (day 8 after tumour inoculation) was 2 mm^2, the “Tumour volume, overall values (Mean)” value (day 8 after tumour inoculation) was 9.91 mm^3 and the “Tumour volume, overall values (Median)” value (day 8 after tumour inoculation) was 2 mm^3. The “Tumour surface, overall values (Mean)” value [1] was 13.69 mm^2, the “Tumour surface, overall values (Median)” value [1] was 16 mm^2 and the “Tumour volume, overall values (Mean)” value [1] was 31.34 mm^3. The “Tumour volume, overall values (Median)” value [1] was 32 mm^3, the “Tumour surface, overall values (Mean)” value [2] was 20.875 mm^2 and the “Tumour surface, overall values (Median)” value [2] was 20.5 mm^2. For the same compound, the “Tumour volume, overall values (Mean)” value [2] was 53.12 mm^3, the “Tumour volume, overall values (Median)” value [2] was 47.25 mm^3 and the “Tumour surface, overall values (Mean)” value [3] was 32.37 mm^2. For the same compound, the “Tumour surface, overall values (Median)” value [3] was 27.5 mm^2, the “Tumour volume, overall values (Mean)” value [3] was 105.19 mm^3 and the “Tumour volume, overall values (Median)” value [3] was 68.75 mm^3. For the same compound, the “Tumour surface, overall values (Mean)” value [4] was 42.12 mm^2, the “Tumour surface, overall values (Median)” value [4] was 39.5 mm^2 and the “Tumour volume, overall values (Mean)” value [4] was 160.5 mm^3. The “Tumour volume, overall values (Median)” value [4] was 123.25 mm^3, the “Tumour surface, overall values (Mean)” value [5] was 50 mm^2 and the “Tumour surface, overall values (Median)” value [5] was 39.5 mm^2. For the same compound, the “Tumour volume, overall values (Mean)” value [5] was 202.19 mm^3, the “Tumour volume, overall values (Median)” value [5] was 123.25 mm^3 and the “Tumour surface, overall values (Mean)” value [6] was 57 mm^2. For the same compound, the “Tumour surface, overall values (Median)” value [6] was 46.5 mm^2, the “Tumour volume, overall values (Mean)” value [6] was 249.06 mm^3 and the “Tumour volume, overall values (Median)” value [6] was 147.75 mm^3. The “Tumour surface, overall values (Mean)” value [7] was 68.87 mm^2, the “Tumour surface, overall values (Median)” value [7] was 52.5 mm^2 and the “Tumour volume, overall values (Mean)” value [7] was 342.94 mm^3. For the same compound, the “Tumour volume, overall values (Median)” value [7] was 173.25 mm^3, the “Tumour surface, overall values (Mean)” value [8] was 78.81 mm^2 and the “Tumour surface, overall values (Median)” value [8] was 53 mm^2. For the same compound, the “Tumour volume, overall values (Mean)” value [8] was 425.91 mm^3, the “Tumour volume, overall values (Median)” value [8] was 191 mm^3 and the “Differences in Ehrlich tumour growth rate vs. placebo, statistical significance p (Mann-Whitney U test)” value (either in surface or volume, all days scored after the day 13th) was < 0.05.
